≈ marks a conversion by molar mass, not a printed value. Like-named read-outs stand apart in the source and are kept apart here. Marks after values point to notes of the source that are not given here.
Key:
A3 = conditions: printed in Figure 2; cited from earlier work
A2A = conditions: cited from earlier work
A1 = conditions: cited from earlier work
human A1AR [1] = biological target: T1, human A1AR (Homo sapiens, UniProt P30542); conditions: for Exp absolute binding affinity (ΔGbind): experimental, A1AR; for Ki: read-out: hA1 Ki, displacement of specific [3H]DPCPX binding, human CHO cells, ± SEM, n = 3
T1 sequence (P30542 1-326): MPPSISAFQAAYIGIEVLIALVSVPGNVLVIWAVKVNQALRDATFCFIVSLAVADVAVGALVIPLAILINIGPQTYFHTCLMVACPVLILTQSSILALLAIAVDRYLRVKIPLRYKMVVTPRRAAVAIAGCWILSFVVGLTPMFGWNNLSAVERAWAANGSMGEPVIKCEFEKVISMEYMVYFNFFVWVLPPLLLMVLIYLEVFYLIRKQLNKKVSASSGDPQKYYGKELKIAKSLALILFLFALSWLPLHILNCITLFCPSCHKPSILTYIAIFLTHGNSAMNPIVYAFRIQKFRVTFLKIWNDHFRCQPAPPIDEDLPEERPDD

P-glycoprotein (P-gp) = P-glycoprotein (P-gp) (Homo sapiens, UniProt P08183); conditions: MDCK-MDR1 cells, NA = not active
human A1AR [2] = biological target: T1, human A1AR; assay: biochemical
hA2A = hA2A (Homo sapiens, UniProt P29274); assay: cAMP functional assay, inhibition of NECA effect; assay type: cell-based; conditions: read-out: hA2A % Inhib. NECA (1 μM)
hA2B = biological target: T2, hA2B (Homo sapiens, UniProt P29275); assay: cAMP functional assay, inhibition of NECA effect; assay type: cell-based; conditions: read-out: hA2B % Inhib. NECA (1 μM)
T2 sequence (P29275 1-332): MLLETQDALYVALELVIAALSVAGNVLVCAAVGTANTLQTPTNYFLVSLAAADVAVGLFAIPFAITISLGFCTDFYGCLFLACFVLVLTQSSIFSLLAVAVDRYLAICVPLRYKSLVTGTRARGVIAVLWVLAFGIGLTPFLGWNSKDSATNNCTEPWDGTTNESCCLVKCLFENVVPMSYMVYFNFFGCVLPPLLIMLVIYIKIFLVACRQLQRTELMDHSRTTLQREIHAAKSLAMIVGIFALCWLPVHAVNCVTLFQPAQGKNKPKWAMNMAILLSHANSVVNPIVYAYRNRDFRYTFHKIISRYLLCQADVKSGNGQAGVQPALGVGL

hA3 = biological target: T3, hA3 (Homo sapiens, UniProt P0DMS8); assay: cAMP functional assay, inhibition of NECA effect; assay type: cell-based; conditions: read-out: hA3 % Inhib. NECA (1 μM)
T3 sequence (P0DMS8 1-318): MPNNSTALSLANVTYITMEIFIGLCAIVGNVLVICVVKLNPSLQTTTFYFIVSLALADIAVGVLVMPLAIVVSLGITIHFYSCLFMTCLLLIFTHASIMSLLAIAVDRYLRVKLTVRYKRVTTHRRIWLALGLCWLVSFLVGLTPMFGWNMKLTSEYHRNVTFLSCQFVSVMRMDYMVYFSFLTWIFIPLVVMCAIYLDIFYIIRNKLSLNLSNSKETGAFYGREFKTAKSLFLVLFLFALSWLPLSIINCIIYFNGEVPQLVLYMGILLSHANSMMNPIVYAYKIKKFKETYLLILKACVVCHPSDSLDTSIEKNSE

in vitro = conditions: human, microsomes, pH 7.4
[3] = Aqueous solubility by nephelometry in PBS; conditions: pH 7.4
human A2AAR = human A2AAR (Homo sapiens, UniProt P29274); conditions: read-out: hA2A Ki; displacement of specific [3H]ZM241385 binding, human HeLa cells, ± SEM, n = 3
human A2BAR [4] = biological target: T4, human A2BAR (Homo sapiens, UniProt P29275); conditions: read-out: hA2B Ki; displacement of specific [3H]DPCPX binding, human HEK-293 cells, ± SEM, n = 3
T4 sequence (P29275 1-332): T2 sequence (P29275 1-332)

human A2BAR [5] = biological target: T4, human A2BAR; assay: biochemical; conditions: read-out: hA2B percentage displacement of specific binding at 1 μM
[6] = human microsomes
hA1ARs = biological target: T5, hA1ARs (Homo sapiens, UniProt P30542); conditions: NECA 100 nM, forskolin 3 μM
T5 sequence (P30542 1-326): T1 sequence (P30542 1-326)

human A2AAR, sequence (P29274 whole entry): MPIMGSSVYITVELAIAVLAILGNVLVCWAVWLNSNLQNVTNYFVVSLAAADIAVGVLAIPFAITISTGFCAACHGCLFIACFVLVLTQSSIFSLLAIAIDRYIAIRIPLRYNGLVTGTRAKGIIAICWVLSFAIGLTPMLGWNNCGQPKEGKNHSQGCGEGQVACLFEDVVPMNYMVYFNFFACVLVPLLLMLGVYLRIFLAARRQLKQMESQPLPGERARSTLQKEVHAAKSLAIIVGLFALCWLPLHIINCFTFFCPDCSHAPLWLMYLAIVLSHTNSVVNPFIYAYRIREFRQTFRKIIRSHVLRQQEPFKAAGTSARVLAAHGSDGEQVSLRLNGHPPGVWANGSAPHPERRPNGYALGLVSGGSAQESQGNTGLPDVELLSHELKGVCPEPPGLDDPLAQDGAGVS
hA2A, sequence (P29274 whole entry): as above
P-glycoprotein (P-gp), sequence (P08183 whole entry): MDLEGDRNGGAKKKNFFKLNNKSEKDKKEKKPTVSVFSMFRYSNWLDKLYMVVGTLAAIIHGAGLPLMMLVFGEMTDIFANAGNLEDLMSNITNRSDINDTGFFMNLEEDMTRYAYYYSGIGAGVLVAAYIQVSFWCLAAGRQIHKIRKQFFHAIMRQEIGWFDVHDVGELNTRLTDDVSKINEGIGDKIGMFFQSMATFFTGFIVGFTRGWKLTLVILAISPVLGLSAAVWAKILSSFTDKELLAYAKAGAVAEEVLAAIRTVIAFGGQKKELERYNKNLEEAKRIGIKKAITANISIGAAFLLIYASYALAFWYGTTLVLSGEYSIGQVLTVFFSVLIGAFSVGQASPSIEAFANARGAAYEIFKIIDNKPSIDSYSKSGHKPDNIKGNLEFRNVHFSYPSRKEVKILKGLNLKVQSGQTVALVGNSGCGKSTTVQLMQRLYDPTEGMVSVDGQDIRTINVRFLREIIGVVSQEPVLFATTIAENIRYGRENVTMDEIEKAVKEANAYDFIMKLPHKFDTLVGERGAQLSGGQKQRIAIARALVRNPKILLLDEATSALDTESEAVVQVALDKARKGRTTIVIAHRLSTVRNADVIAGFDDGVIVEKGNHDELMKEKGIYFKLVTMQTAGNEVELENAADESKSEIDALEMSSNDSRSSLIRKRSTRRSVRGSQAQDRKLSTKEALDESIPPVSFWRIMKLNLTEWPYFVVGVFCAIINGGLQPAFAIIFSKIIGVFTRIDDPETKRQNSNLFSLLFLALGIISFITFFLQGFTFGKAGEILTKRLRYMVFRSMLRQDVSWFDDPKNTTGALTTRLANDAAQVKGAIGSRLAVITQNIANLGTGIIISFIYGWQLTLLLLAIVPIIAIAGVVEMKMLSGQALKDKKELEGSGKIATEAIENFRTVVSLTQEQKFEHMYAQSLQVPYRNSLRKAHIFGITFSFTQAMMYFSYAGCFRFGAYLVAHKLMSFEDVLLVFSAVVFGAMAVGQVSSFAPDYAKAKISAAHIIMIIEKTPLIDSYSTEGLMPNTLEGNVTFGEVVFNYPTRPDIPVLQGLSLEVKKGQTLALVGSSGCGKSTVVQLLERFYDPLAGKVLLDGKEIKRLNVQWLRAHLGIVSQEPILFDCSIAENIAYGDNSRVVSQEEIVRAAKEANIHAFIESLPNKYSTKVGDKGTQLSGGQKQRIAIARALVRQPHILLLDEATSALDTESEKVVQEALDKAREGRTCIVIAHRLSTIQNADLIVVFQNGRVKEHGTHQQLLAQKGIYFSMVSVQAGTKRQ

Nc1cc(-c2ccc3c(c2)OCO3)nc(-c2ccccc2)n1 [15b]
A3 (1μM) (A3): 15%

N#Cc1c(NC(=O)C2CCCC2)nc(-c2ccccc2)nc1-c1ccc2c(c1)OCO2 [15c]
A2A (1μM) (A2A): 14%
A3 (1μM) (A3): 27%

Nc1nc(-c2ccccc2)cc(-c2ccccc2)n1 [17a]
Ki (A1): 0.0177 µM

CNc1nc(-c2ccccc2)c(C#N)c(-c2ccc(F)cc2F)n1 [19af]
Exp absolute binding affinity (ΔGbind) (human A1AR [1]): -43.6 kJ/mol
Ki (human A1AR [1]): 0.0226 ± 0.007 µM
Calcein-AM transport inhibition at 100 μM (P-glycoprotein (P-gp)): 44% ^a
Ki (human A1AR [2]): < 0.05 µM

CNc1nc(-c2ccccc2)c(C#N)c(-c2cc(Cl)cc(Cl)c2)n1 [19aj]
Exp absolute binding affinity (ΔGbind) (human A1AR [1]): -43.18 kJ/mol
Ki (human A1AR [1]): 0.027 ± 0.0036 µM
Ki (human A1AR [2]): < 0.05 µM

CNc1nc(-c2ccccc2)c(C#N)c(-c2ccc3c(c2)OCO3)n1 [19ao]
inhibition at 1 µM (hA2A): 18%
inhibition at 1 µM (hA2B): 1%
inhibition at 1 µM (hA3): 5%
Calcein-AM transport inhibition at 100 μM (P-glycoprotein (P-gp)): 59% ^a
half-life (in vitro): 15.2 min
solubility at 2 h [3]: 5.4 µM (≈ 1.78 µg/mL)

N#Cc1c(-c2ccccc2)nc(Nc2ccccc2)nc1-c1ccc2c(c1)OCO2 [19aq]
Ki (human A1AR [1]): 0.0114 ± 0.0037 µM
Ki (human A2AAR): 0.028 ± 0.0096 µM
Ki (human A2BAR [4]): 0.188 ± 0.023 µM

N#Cc1c(-c2ccccc2)nc(Nc2ccccc2)nc1-c1ccco1 [19au]
Ki (human A1AR [1]): 0.0337 ± 0.0073 µM
Ki (human A2AAR): 0.00215 ± 0.00011 µM
Ki (human A2BAR [4]): 0.0147 ± 0.0049 µM

CNc1nc(-c2ccccc2)c(C#N)c(-c2ccsc2)n1 [19az]
A1AR selectivity (human A1AR [1]): > 1000 fold
Exp relative binding affinity (ΔΔGbind) (human A1AR [1]; Lig 2 relative to Lig 1 = 19a): 3.81 kJ/mol
Exp relative binding affinity (ΔΔGbind) (human A1AR [1]; Lig 2 relative to Lig 1 = 19bb): -0.711 kJ/mol
Exp absolute binding affinity (ΔGbind) (human A1AR [1]): -42.05 kJ/mol
Ki (human A1AR [1]): 0.0428 ± 0.0037 µM
Ki (human A1AR [2]): < 0.05 µM

CNc1nc(-c2ccccc2)c(C#N)c(-c2cccnc2)n1 [19bd]
A1AR selectivity (human A1AR [1]): > 1000 fold
Exp relative binding affinity (ΔΔGbind) (human A1AR [1]; Lig 2 relative to Lig 1 = 19a): 1.84 kJ/mol
Exp relative binding affinity (ΔΔGbind) (human A1AR [1]; Lig 2 relative to Lig 1 = 19bb): -2.68 kJ/mol
Exp absolute binding affinity (ΔGbind) (human A1AR [1]): -44.02 kJ/mol
Ki (human A1AR [1]): 0.0193 ± 0.0071 µM
Ki (human A1AR [2]): < 0.05 µM

CCNc1nc(-c2ccccc2)c(C#N)c(-c2cccnc2)n1 [19be]
Ki (human A1AR [1]): 0.0118 ± 0.0035 µM
Ki (human A2AAR): 0.335 ± 0.018 µM
inhibition at 1 µM (human A2BAR [5]): 1%

N#Cc1c(-c2ccccc2)nc(Nc2ccccc2)nc1-c1ccccc1F [19e]
Ki (human A1AR [1]): 0.00625 ± 0.00102 µM
Ki (human A2AAR): 0.0525 ± 0.0062 µM
Ki (human A2BAR [4]): 0.107 ± 0.01 µM

CNc1nc(-c2ccccc2)c(C#N)c(-c2cccc(Cl)c2)n1 [19l]
inhibition at 1 µM (hA2A): 16%
inhibition at 1 µM (hA2B): 11%
inhibition at 1 µM (hA3): 9%
half-life (in vitro): 6.24 min
solubility at 2 h [3]: 75.4 µM (≈ 24.2 µg/mL)

CNc1nc(-c2ccccc2)c(C#N)c(-c2cccc(C#N)c2)n1 [19s]
Exp relative binding affinity (ΔΔGbind) (human A1AR [1]; Lig 2 relative to Lig 1 = 19a): -2.76 kJ/mol
Exp absolute binding affinity (ΔGbind) (human A1AR [1]): -48.62 kJ/mol
Ki (human A1AR [1]): 0.00299 ± 0.00071 µM
Ki (human A2AAR): 0.0785 ± 0.0067 µM
Ki (human A2BAR [4]): 0.0346 ± 0.0057 µM

CCNc1nc(-c2ccccc2)c(C#N)c(-c2cccc(C#N)c2)n1 [19t]
Ki (human A1AR [1]): 0.00246 ± 0.00018 µM
Ki (human A2AAR): 0.155 ± 0.021 µM
Ki (human A2BAR [4]): 0.0142 ± 0.0038 µM

CNc1nc(-c2ccccc2)c(C#N)c(-c2ccc(F)cc2)n1 [19v]
inhibition at 1 µM (hA2A): 25%
inhibition at 1 µM (hA3): 5%
half-life (in vitro): 18.6 min
solubility at 2 h [3]: 18 µM (≈ 5.48 µg/mL)

CNc1nc(-c2ccccc2)c(C#N)c(-c2ccc(O)cc2)n1 [19z]
A1AR selectivity (human A1AR [1]): > 1000 fold
Exp relative binding affinity (ΔΔGbind) (human A1AR [1]; Lig 2 relative to Lig 1 = 19a): 3.93 kJ/mol
Exp relative binding affinity (ΔΔGbind) (human A1AR [1]; Lig 2 relative to Lig 1 = 19ad): 1.17 kJ/mol
Exp absolute binding affinity (ΔGbind) (human A1AR [1]): -41.92 kJ/mol
Ki (human A1AR [1]): 0.0446 ± 0.0032 µM
Ki (human A1AR [2]): < 0.05 µM

C[C@]12CC[C@H]3[C@@H](CCC4=CC(=O)CC[C@@]43C)[C@@H]1CC[C@@H]2O [Testosterone, reference compound]
% Remanent (sampling time 60 min) [6]: 8.77%
half-life (in vitro): 17.1 min
microsomal CLint (in vitro): 27.8 µL/min/mg

CCCn1c(=O)c2[nH]c(-c3ccc(OCC(=O)NCCN)cc3)nc2n(CCC)c1=O [XAC]
functional behaviour at hA1ARs (cAMP) (hA1ARs): reverse the inhibitory effect of NECA on FSK-induced cAMP accumulation

— article PMC8842224 (Journal of Medicinal Chemistry, 2022)
